The source of these data is US20230134922A1, “TOPICAL DELIVERY OF BUFFERING AGENTS FOR PREVENTION AND TREATMENT OF VIRAL INFECTIONS” (Dyve Biosciences, Inc., priority 2020, published 2023).

For one assay, the system named is MCF-7 tumors. In words: MCF-7 tumor growth in SCID mice, doxorubicin with oral or topical bicarbonate. The assay is classed as in vivo. The procedure:
The start of the bicarbonate treatment was designated as day 1.
Tumor volumes and animal weights were monitored every 2 days. […] Other characteristics of tumors that increase its potential for carcinogenesis other than growth rates are measured by other parameters as well, including inhibition metastasis.

The next assay relates to MCF-7 cells. Description: Doxorubicin uptake and cytotoxicity at medium pH 6.8 or 7.4. The assay is classed as cell-based. The note with it: raising the pHe from 6.8 to 7.4.

Method for MCF-7 cells: Twenty-four hours later, regular growth medium was replaced, and cells allowed to grow a subsequent 72 h, after which time they were fixed and stained with crystal violet for determination of cell number.

As to doxorubicin, the “decrease of tumor growth rate” value with MCF-7 tumors (Group B, 1.6 mg/kg i.p. days 3, 7, 11, doxorubicin alone) is given as ~30%. The “reduction in tumor growth rate” value is listed as 55% in the assay on MCF-7 tumors (Group D, doxorubicin i.p. with 200 mM sodium bicarbonate drinking water); “significantly lowered tumor growth rate” with MCF-7 tumors (Group F, doxorubicin i.p. with topical bicarbonate formulation 150 μL/day); 55% in the assay on MCF-7 tumors (Group F, doxorubicin i.p. with topical bicarbonate formulation 150 μL/day, listed as Doxorubicin). In the assay on MCF-7 cells, the enhancement of cytotoxicity came out at 2.25 fold. The “increase in intracellular doxorubicin concentrations” value with MCF-7 cells is on record as 2.56 fold.
